From patent US7427615B2, “3-substituted-4-pyrimidone derivatives” (Mitsubishi Pharma Corporation, priority 2001, dated 2008)

Biological target: T1, bovine cerebral TPK1 (Bos taurus, UniProt A0A3Q1MT31)
T1 construct: from tissue; host or cells: bovine brain (cerebrum)
Assay: Inhibitory activity against P-GS1 phosphorylation by bovine cerebral TPK1
Format: biochemical
Settings: 41.7 μM [γ-32P]ATP, 25° C., 2 hours, pH 6.5
Description: Test Example: Inhibitory activity of the medicament of the present invention against P-GS1 phosphorylation by bovine cerebral TPK1
A mixture containing 100 mM MES-sodium hydroxide (pH 6.5), 1 mM magnesium acetate, 0.5 mM EGTA, 5 mM β-mercaptoethanol, 0.02% Tween 20, 10% glycerol, 12 μg/ml P-GS1, 41.7 μM [Υ-^32P] ATP (68 kBq/ml), bovine cerebral TPK1 and a compound shown in Table (a final mixture contained 1.7% DMSO deriving from a solution of a test compound prepared in the presence of 10% DMSO) was used as a reaction system. The phosphorylation was started by adding ATP, and the reaction was conducted at 25° C. for 2 hours, and then stopped by adding 21% perchloric acid on ice cooling. The reaction mixture was centrifuged at 12,000 rpm for 5 minutes and adsorbed on P81 paper (Whatmann), and then the paper was washed four times with 75 mM phosphoric acid, three times with water and once with acetone. The paper was dried, and the residual radioactivity was measured using a liquid scintillation counter.

T1 sequence (A0A3Q1MT31 1-419): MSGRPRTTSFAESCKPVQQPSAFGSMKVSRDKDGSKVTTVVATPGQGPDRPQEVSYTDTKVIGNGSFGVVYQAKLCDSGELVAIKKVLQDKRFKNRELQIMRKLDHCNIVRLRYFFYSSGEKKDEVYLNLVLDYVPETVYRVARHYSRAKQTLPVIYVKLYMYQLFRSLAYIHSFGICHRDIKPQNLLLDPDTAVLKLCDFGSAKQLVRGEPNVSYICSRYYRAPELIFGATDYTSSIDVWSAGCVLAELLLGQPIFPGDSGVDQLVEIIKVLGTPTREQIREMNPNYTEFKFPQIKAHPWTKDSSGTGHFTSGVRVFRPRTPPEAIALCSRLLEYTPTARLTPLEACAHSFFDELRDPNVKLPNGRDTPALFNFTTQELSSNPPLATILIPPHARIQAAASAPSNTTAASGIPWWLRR

| SMILES | IC50 [nM] |
| --- | --- |
| Cn1c(N2CCCC(C(=O)Nc3ccccc3)C2)nc(-c2ccncc2)cc1=O (centres unmarked) [C067, 1-(1-Methyl-6-oxo-4-pyridin-4-yl-1,6-dihydro-pyrimidine-2-yl)-piperidine-3-carboxanilide] | 72 |
| Cn1c(N2CCO[C@@H](c3ccccc3Cl)C2)nc(-c2ccncc2)cc1=O [B046] | 8.3 |
| Cn1c(N2CCC(C(=O)c3ccc(F)cc3)CC2)nc(-c2ccncc2)cc1=O [D004] | 15 |
| Cn1c(N2CCOC(c3cccc(N4CCCC4)c3)C2)nc(-c2ccncc2)cc1=O (single isomer, unassigned) [B289] | 33 |
| COc1ccc([C@H]2CN(c3nc(-c4ccncc4)cc(=O)n3C)CCO2)cc1 [B079, (S)-2-[2-(4-Methoxyphenyl)morpholin-4-yl]-3-methyl-6-pyridin-4-yl-3H-pyrimidin-4-one] | 3.3 |
| Cn1c(N2CCCC(C(=O)c3ccccc3)C2)nc(-c2ccncc2)cc1=O (centres unmarked) [C001, 2-(3-Benzoylpiperidin-1-yl)-3-methyl-6-pyridin-4-yl-3H-pyrimidin-4-one] | 2.1 |
| Cn1c(NCC(=O)c2cccc(Cl)c2)nc(-c2ccncc2)cc1=O [A006] | 13 |
| Cn1c(N2CCOC(c3cccc(Br)c3)C2)nc(-c2ccncc2)cc1=O (centres unmarked) [B051] | 1.9 |
| COc1ccc(-c2cccnc2)cc1C1CN(c2nc(-c3ccncc3)cc(=O)n2C)CCO1 (centres unmarked) [B256] | 1.1 |
| Cn1c(N2CCO[C@@H](c3c(F)cccc3F)C2)nc(-c2ccncc2)cc1=O [B110] | 8.2 |
| Cn1c(N2CCC(C(=O)N3CCCc4ccccc43)CC2)nc(-c2ccncc2)cc1=O [D018] | 4.3 |
| Cn1c(N2CCC(C(=O)c3ccccc3)CC2)nc(-c2ccncc2)cc1=O [D001, 2-(4-benzoylpiperidin-1-yl)-3-methyl-6-pyridin-4-yl-3H-pyrimidin-4-one] | 9 |
| Cn1c(N2CCC(C(=O)c3ccc(Cl)cc3)CC2)nc(-c2ccncc2)cc1=O [D009, 2-[4-(4-Chlorobenzoyl)piperidin-1-yl]-3-methyl-6-pyridin-4-yl-3H-pyrimidin-4-one] | 6 |
| Cn1c(N2CCC(C(=O)c3ccccc3F)CC2)nc(-c2ccncc2)cc1=O [D002] | 23 |
| COc1ccc(-c2cccc(CN3CCCC3)c2)cc1C1CN(c2nc(-c3ccncc3)cc(=O)n2C)CCO1 (centres unmarked) [B287] | 0.57 |
| Cn1c(N2CCC(C(=O)c3ccc(-c4ccccc4)cc3)CC2)nc(-c2ccncc2)cc1=O [D022] | 7.8 |
| CCOc1ccccc1C1CN(c2nc(-c3ccncc3)cc(=O)n2C)CCO1 (centres unmarked) [B087] | 5 |
| Cn1c(N2CCOC(CCc3ccccc3)C2)nc(-c2ccncc2)cc1=O (centres unmarked) [B010] | 6 |
| Cn1c(N2CCO[C@H](c3c(Cl)cccc3Cl)C2)nc(-c2ccncc2)cc1=O [B107] | 50 |

| SMILES | IC50 [nM] |
| --- | --- |
| COc1cc(F)ccc1C1CN(c2nc(-c3ccncc3)cc(=O)n2C)CCO1 (centres unmarked) [B091] | 1.2 |
| COc1cc(F)ccc1C(=O)C1CCN(c2nc(-c3ccncc3)cc(=O)n2C)CC1 [D025] | 16 |
| Cn1c(N2CCOC(C(=O)c3ccccc3)C2)nc(-c2ccncc2)cc1=O (single isomer, unassigned) [C390] | 1 |
| Cn1c(N2CCC(C(=O)N3CCc4ccccc43)CC2)nc(-c2ccncc2)cc1=O [D019] | 8.1 |
| Cn1c(N2CCOC(c3ccccc3Br)C2)nc(-c2ccncc2)cc1=O (centres unmarked) [B054] | 4 |
| Cn1c(N2CCOC(c3ccc(N4CCCC4)cc3)C2)nc(-c2ccncc2)cc1=O (centres unmarked) [B140] | 8 |
| COc1ccccc1C1CN(c2nc(-c3ccncc3)cc(=O)n2C)CCO1 (centres unmarked) [B084] | 1.1 |
| Cc1ccccc1C1CN(c2nc(-c3ccncc3)cc(=O)n2C)CCO1 (centres unmarked) [B063] | 6 |
| Cn1c(N2CCC(C(=O)c3ccc(F)cc3F)CC2)nc(-c2ccncc2)cc1=O [D012] | 19 |
| Cn1c(N2CCOC(c3ccc(OCC4CC4)cc3)C2)nc(-c2ccncc2)cc1=O (centres unmarked) [B128] | 30 |
| Cn1c(N2CCC(C(=O)c3ccccc3-c3ccccc3)CC2)nc(-c2ccncc2)cc1=O [D023] | 13 |
| Cn1c(N2CCOC(C(=O)c3ccccc3)C2)nc(-c2ccncc2)cc1=O (centres unmarked) [C101, 2-(2-benzoylmorpholin-4-yl)-3-methyl-6-pyridin-4-yl-3H-pyrimidin-4-one] | 3.5 |
| CC(C)Oc1ccc(C2CN(c3nc(-c4ccncc4)cc(=O)n3C)CCO2)cc1 (centres unmarked) [B122] | 63 |
| COc1cccc(C(=O)C2CCN(c3nc(-c4ccncc4)cc(=O)n3C)CC2)c1OC [D011] | 11 |
| Cn1c(N2CCOC(c3cc(F)c(F)cc3Cl)C2)nc(-c2ccncc2)cc1=O (centres unmarked) [B097] | 2.8 |
| Cn1c(N2CCOC(c3ccc(F)cc3Br)C2)nc(-c2ccncc2)cc1=O (centres unmarked) [B100] | 4.7 |
| Cn1c(N2CCO[C@@H](c3ccccc3F)C2)nc(-c2ccncc2)cc1=O [B037] | 4.8 |
| Cn1c(N2CCOC(c3cccc(N4CCCC4)c3)C2)nc(-c2ccncc2)cc1=O (single isomer, unassigned) [B288] | 40 |
| COc1cc(F)ccc1[C@@H]1CN(c2nc(-c3ccncc3)cc(=O)n2C)CCO1 [B285] | 8.9 |

| SMILES | IC50 [nM] |
| --- | --- |
| Cn1c(N2CCC(C(=O)c3ccc(Cl)s3)CC2)nc(-c2ccncc2)cc1=O [D021] | 11 |
| COc1ccc(C(=O)C2CCN(c3nc(-c4ccncc4)cc(=O)n3C)CC2)cc1 [D007] | 18 |
| COc1cc(OC(C)C)ccc1C1CN(c2nc(-c3ccncc3)cc(=O)n2C)CCO1 (centres unmarked) [B261] | 1.3 |
| Cn1c(N2CCOC(c3ccc(F)c(F)c3)C2)nc(-c2ccncc2)cc1=O (centres unmarked) [B257] | 67 |
| COc1cc(-c2ccccc2F)ccc1C1CN(c2nc(-c3ccncc3)cc(=O)n2C)CCO1 (centres unmarked) [B290] | 2 |
| Cn1c(N2CCOC(c3ccc(F)cc3Cl)C2)nc(-c2ccncc2)cc1=O (centres unmarked) [B253] | 15 |
| Cn1c(N2CCO[C@@H](c3c(Cl)cccc3Cl)C2)nc(-c2ccncc2)cc1=O [B106] | 1.4 |
| Cn1c(N2CCC(C(=O)c3cccs3)CC2)nc(-c2ccncc2)cc1=O [D014] | 20 |
| COc1ccccc1[C@H]1CN(c2nc(-c3ccncc3)cc(=O)n2C)CCO1 [B085] | 1.4 |
| Cn1c(N2CCOC(C(=O)c3ccccc3)C2)nc(-c2ccncc2)cc1=O (single isomer, unassigned) [C389] | 34 |
| Cn1c(N2CCOC(c3cccc(S(C)(=O)=O)c3)C2)nc(-c2ccncc2)cc1=O (centres unmarked) [B130] | 52.9 |
| CCn1c(N2CCOC(c3c(OC)cccc3OC)C2)nc(-c2ccncc2)cc1=O (centres unmarked) [B263] | 1.2 |
| Cn1c(N2CCC(C(=O)c3ccc(F)c(F)c3)CC2)nc(-c2ccncc2)cc1=O [D013] | 19 |
| COc1cccc(OC)c1[C@H]1CN(c2nc(-c3ccncc3)cc(=O)n2C)CCO1 [B103] | 0.36 |
| Cn1c(N2CCC(C(=O)c3cccc4ccccc34)CC2)nc(-c2ccncc2)cc1=O [D024] | 19 |
| Cn1c(N2CCC(C(=O)n3ccc4ccccc43)CC2)nc(-c2ccncc2)cc1=O [D017] | 10 |
| Cn1c(NCC(=O)c2ccccc2F)nc(-c2ccncc2)cc1=O [A002] | 27 |
| Cn1c(NCC(=O)c2ccccc2)nc(-c2ccncc2)cc1=O [A001, 3-methyl-2-(2-oxo-2-phenylethylamino)-6-pyridin-4-yl-3H-pyrimidin-4-one] | 8.9 |
